{"source": "paper PMC7802074", "about": "“Azanitrile Inhibitors of the SmCB1 Protease Target Are Lethal to Schistosoma mansoni: Structural and Mechanistic Insights into Chemotype Reactivity” (ACS Infectious Diseases, 2020)", "key": {"[1]": {"tested_on": "S. mansoni newly transformed schistosomula (NTS)", "test": "Schistosome phenotypic assay", "type": "cell-based, Schistosoma mansoni", "settings": "for Severity score Day 1 / Severity score Day 2 / Severity score Day 3 / Severity score Day 4: 10 μM inhibitor, scale 0 (no effect) to 4 (severe); for Severity score Day 1: 24 h; for Severity score Day 2: 48 h", "method": "Newly transformed schistosomula (NTS) of S. mansoni were prepared by mechanically transforming infective larvae (cercariae) as described previously.[70],[71] NTS (200–300 parasites) were incubated in 200 μL of Basch Medium 169 containing 5% FBS, 100 U mL^–1 penicillin, and 100 μg mL^–1 streptomycin at 5% CO2 and 37 °C.[70],[72],[73] Inhibitors were added at the final concentration of 10 μM,[20],[69] and changes in phenotypes were observed every 24 h for up to 4 days. A constrained nomenclature of “descriptors” is used to record the multiple and dynamic changes in movement, shape, and translucence of which the schistosome parasite is capable (Table S3).[70] These descriptors are then converted into an ordinal “severity score” system from 0 (no effect) to 4 (maximum effect), which allows for the relative comparison of compound effects, as described.[74],[75] Images of NTS were captured using a Zeiss Axiovert 40 C inverted microscope (10× objective) and a Zeiss AxioCam MRc digital camera controlled by AxioVision 40 (v. 4.8.1.0) software."}, "[2]": {"test": "Cytotoxicity, XTT test, HepG2", "type": "cell-based", "settings": "human, % viability vs. untreated cells, read-out: Cell line viability after 72 h; for viability at 72 h, 1 µM: HepG2, 1 µM; for viability at 72 h, 10 µM: HepG2, 10 µM", "method": "(§1) T able S4. […]\n(§2) Cell line viability after 72 h (%)a\n(§3) Inhibitor 1 µM 10 µM 1 µM 10 µM\n(§4) aCytotoxicity of the inhibitors towards human cell lines are expressed as % viability vs. untreated cells. Cells were treated with\n(§5) the indicated concentration of the compounds for 72 h and assayed by means of the XTT test (as described previously 12).\n(§6) Standard deviation values were within 10% of the mean of tetraplicates. […]"}, "[3]": {"test": "Cytotoxicity, XTT test, HUVEC", "type": "cell-based", "settings": "human, % viability vs. untreated cells, read-out: Cell line viability after 72 h", "method": "as §1, §2, §3, §4, §5, §6"}, "[4]": {"target": "recombinant SmCB1 (Schistosoma mansoni, UniProt Q8MNY2, T185A/T300A)", "sequence (Q8MNY2 87-340 T185A/T300A)": "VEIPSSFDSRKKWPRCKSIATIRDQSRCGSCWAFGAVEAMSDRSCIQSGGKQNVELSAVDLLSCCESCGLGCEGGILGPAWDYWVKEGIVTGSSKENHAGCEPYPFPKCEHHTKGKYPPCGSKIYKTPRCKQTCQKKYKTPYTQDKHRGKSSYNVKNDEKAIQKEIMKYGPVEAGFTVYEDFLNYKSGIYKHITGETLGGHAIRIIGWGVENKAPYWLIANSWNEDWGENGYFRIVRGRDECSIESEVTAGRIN", "test": "SmCB1 kinetic inhibition assay with fluorogenic substrate Cbz-Phe-Arg-AMC", "type": "biochemical", "settings": "for Ki / SmCB1 inhibition k2nd (second-order rate constant): substrate Cbz-Phe-Arg-AMC; for SmCB1 inhibition k2nd (second-order rate constant): slow-binding azadipeptide nitriles", "method": "Inhibition measurements were performed in triplicates in 96-well microplates (100 μL assay volume) at 37 °C. SmCB1 (20–40 pM) was added to a mixture of the fluorogenic substrate Cbz-Phe-Arg-AMC (20 μM) and an inhibitor (0–100 μM) in 0.1 M sodium acetate, pH 5.5, containing 2.5 mM dithiothreitol and 0.1% PEG 6000. The substrate hydrolysis was monitored in an Infinite M1000 microplate reader (Tecan, Männedorf, Switzerland) at excitation and emission wavelengths of 360 and 465 nm, respectively, for up to 15 and 60 min for fast- and slow-binding inhibitors, respectively. […] For slow-binding inhibitors, an observed first-order rate constant kobs was calculated at each inhibitor concentration by fitting the progress curve to the equation P = vst + (vi – vs)(1 – […])/kobs + d, where P is the product formation, vs is the steady-state velocity, t is the reaction time, vi is the initial velocity, and d is the offset. The inhibition constant Ki′ was determined by nonlinear regression using the equation vs/v0 = 1/(1 + [I]/Ki′). The true inhibition constants Ki were then calculated using the equation Ki = Ki′/(1 + [S]/Km), where [S] is the substrate concentration and Km is the Michaelis constant. The apparent second-order rate constant k2nd′ was determined by fitting to the linear equation kobs = k2nd′[I] + koff, where koff is the first-order rate constants for the dissociation of the enzyme–inhibitor complex and the true constant k2nd was calculated by the correction k2nd = k2nd′(1 + [S]/Km). […] In none of the assay systems did the final concentration of DMSO exceed 1.5%."}, "[5]": {"settings": "SmCB1 inhibition Ki, kinetic activity assay, pH 5.5, 37 °C"}, "[6]": {"settings": "Table S2, carbadipeptide nitriles, read-out: SmCB1 inhibition Ki"}, "[7]": {"settings": "SmCB1 inhibition Ki, Table S2, carbadipeptide nitriles"}}, "note": "Values joined by “and” are separate entries in the source; they are usually repeats but may differ in a detail not shown here. Equal values may be shown once. Read-outs that look alike come from different tables or passages of the source."}
{"smiles": "CC(C)CC(NC(=O)NCc1ccccc1)C(=O)N(C)N(C)C#N", "note": "(stereo not drawn) [Compound 3a]", "values": [{"measurement": "Descriptors Day 1 (phenotypic changes)", "setting": "[1]; 10 µM inhibitor", "value": "R, Unc, Dark"}, {"measurement": "Descriptors Day 2 (phenotypic changes)", "setting": "[1]; 10 µM inhibitor", "value": "Deg"}, {"measurement": "Severity score Day 1", "setting": "[1]", "value": 3}, {"measurement": "Severity score Day 2", "setting": "[1]", "value": 4}, {"measurement": "Severity score Day 3", "setting": "[1]", "value": 4}, {"measurement": "Severity score Day 4", "setting": "[1]", "value": 4}, {"measurement": "viability at 72 h, 1 µM", "setting": "[2]", "value": 82, "unit": "%"}, {"measurement": "viability at 72 h, 10 µM", "setting": "[2]", "value": 83, "unit": "%"}, {"measurement": "viability at 72 h, 1 µM", "setting": "[3]", "value": 106, "unit": "%"}, {"measurement": "viability at 72 h, 10 µM", "setting": "[3]", "value": 90, "unit": "%"}, {"measurement": "Ki", "setting": "[4]; [5]", "value": "6.1 ± 0.7", "unit": "nM"}, {"measurement": "SmCB1 inhibition k2nd (second-order rate constant)", "setting": "[4]", "value": "20.4 10^3 M^-1 s^-1 and 20.4 ± 1.9 10^3 M^-1 s^-1"}]}
{"smiles": "CN(C(=O)[C@H](Cc1ccccc1)NC(=O)OCc1ccccc1)N(C#N)CCc1ccccc1", "note": "[Compound 8a]", "values": [{"measurement": "Descriptors Day 1 (phenotypic changes)", "setting": "[1]; 10 µM inhibitor", "value": "Deg"}, {"measurement": "Severity score Day 1", "setting": "[1]", "value": "4 and 4/4"}, {"measurement": "Severity score Day 2", "setting": "[1]", "value": "4 and 4/4"}, {"measurement": "Severity score Day 3", "setting": "[1]", "value": 4}, {"measurement": "Severity score Day 4", "setting": "[1]", "value": 4}, {"measurement": "viability at 72 h, 1 µM", "setting": "[2]", "value": 102, "unit": "%"}, {"measurement": "viability at 72 h, 10 µM", "setting": "[2]", "value": 83, "unit": "%"}, {"measurement": "viability at 72 h, 1 µM", "setting": "[3]", "value": 101, "unit": "%"}, {"measurement": "viability at 72 h, 10 µM", "setting": "[3]", "value": 44, "unit": "%"}, {"measurement": "Ki", "setting": "[4]; [5]", "value": "4.8 ± 0.2", "unit": "nM"}, {"measurement": "SmCB1 inhibition k2nd (second-order rate constant)", "setting": "[4]", "value": "5.2 10^3 M^-1 s^-1 and 5.2 ± 0.4 10^3 M^-1 s^-1"}]}
{"smiles": "CN(C#N)N(C)C(=O)C1(NC(=O)c2ccc(-c3noc(-c4cccs4)n3)cc2)CCCCC1", "note": "[Compound 7a]", "values": [{"measurement": "Descriptors Day 1 (phenotypic changes)", "setting": "[1]; 10 µM inhibitor", "value": "R, Unc, Dark"}, {"measurement": "Descriptors Day 2 (phenotypic changes)", "setting": "[1]; 10 µM inhibitor", "value": "Deg"}, {"measurement": "Severity score Day 1", "setting": "[1]", "value": 3}, {"measurement": "Severity score Day 2", "setting": "[1]", "value": 4}, {"measurement": "Severity score Day 3", "setting": "[1]", "value": 4}, {"measurement": "Severity score Day 4", "setting": "[1]", "value": 4}, {"measurement": "Ki", "setting": "[4]; [5]", "value": "229 ± 7", "unit": "nM"}]}
{"smiles": "CN(C#N)N(C)C(=O)[C@H](CC1CCCCC1)NC(=O)OCc1ccccc1", "note": "[Compound 11a]", "values": [{"measurement": "Descriptors Day 1 (phenotypic changes)", "setting": "[1]; 10 µM inhibitor", "value": "R, Unc"}, {"measurement": "Descriptors Day 2 (phenotypic changes)", "setting": "[1]; 10 µM inhibitor", "value": "Deg"}, {"measurement": "Descriptors Day 3 (phenotypic changes)", "setting": "[1]; 10 µM inhibitor", "value": "Deg"}, {"measurement": "Severity score Day 1", "setting": "[1]", "value": 2}, {"measurement": "Severity score Day 2", "setting": "[1]", "value": 4}, {"measurement": "Severity score Day 3", "setting": "[1]", "value": 4}, {"measurement": "Severity score Day 4", "setting": "[1]", "value": 4}, {"measurement": "viability at 72 h, 1 µM", "setting": "[2]", "value": 89, "unit": "%"}, {"measurement": "viability at 72 h, 10 µM", "setting": "[2]", "value": 109, "unit": "%"}, {"measurement": "viability at 72 h, 1 µM", "setting": "[3]", "value": 92, "unit": "%"}, {"measurement": "viability at 72 h, 10 µM", "setting": "[3]", "value": 85, "unit": "%"}, {"measurement": "Ki", "setting": "[4]; [5]", "value": "4.6 ± 0.5", "unit": "nM"}, {"measurement": "SmCB1 inhibition k2nd (second-order rate constant)", "setting": "[4]", "value": "32.7 ± 2.8 10^3 M^-1 s^-1"}]}
{"smiles": "N#CCNC(=O)[C@H](Cc1ccccc1)NC(=O)c1ccc(-c2ccccc2)cc1", "note": "[Gü1136]", "values": [{"measurement": "Severity score Day 1", "setting": "[1]", "value": 0}, {"measurement": "Severity score Day 2", "setting": "[1]", "value": 0}, {"measurement": "Severity score Day 3", "setting": "[1]", "value": 0}, {"measurement": "Severity score Day 4", "setting": "[1]", "value": 0}, {"measurement": "Ki", "setting": "[4]; [6]", "value": "53 ± 12", "unit": "nM"}]}
{"smiles": "C[C@@H](C#N)N(C)C(=O)[C@H](Cc1ccccc1)NC(=O)OCc1ccccc1", "note": "[Compound 10c]", "values": [{"measurement": "Severity score Day 1", "setting": "[1]", "value": 0}, {"measurement": "Severity score Day 2", "setting": "[1]", "value": 0}, {"measurement": "Severity score Day 3", "setting": "[1]", "value": 0}, {"measurement": "Severity score Day 4", "setting": "[1]", "value": 0}, {"measurement": "Ki", "setting": "[4]; [7]", "value": "> 10000", "unit": "nM"}, {"measurement": "Ki", "setting": "[4]; [5]", "value": "> 100000", "unit": "nM"}]}
{"smiles": "N#CCNC(=O)[C@H](Cc1ccccc1)NC(=O)OCc1ccccc1", "note": "[Compound 2c]", "values": [{"measurement": "Severity score Day 1", "setting": "[1]", "value": 0}, {"measurement": "Severity score Day 2", "setting": "[1]", "value": 0}, {"measurement": "Severity score Day 3", "setting": "[1]", "value": 0}, {"measurement": "Severity score Day 4", "setting": "[1]", "value": 0}, {"measurement": "binding kinetics (shape of progress curves)", "setting": "[4]; Figure 2", "value": "fast-binding"}, {"measurement": "Ki", "setting": "[4]; [7]", "value": "2920 ± 320", "unit": "nM"}, {"measurement": "Ki", "setting": "[4]; [5]", "value": "2920 ± 320", "unit": "nM"}]}
{"smiles": "C[C@H](NC(=O)OCc1ccccc1)C(=O)N(C)N(C)C#N", "note": "[Compound 15a]", "values": [{"measurement": "Descriptors Day 1 (phenotypic changes)", "setting": "[1]; 10 µM inhibitor", "value": "R, Unc"}, {"measurement": "Descriptors Day 2 (phenotypic changes)", "setting": "[1]; 10 µM inhibitor", "value": "Deg"}, {"measurement": "Severity score Day 1", "setting": "[1]", "value": 2}, {"measurement": "Severity score Day 2", "setting": "[1]", "value": 4}, {"measurement": "Severity score Day 3", "setting": "[1]", "value": 4}, {"measurement": "Severity score Day 4", "setting": "[1]", "value": 4}, {"measurement": "Ki", "setting": "[4]; [5]", "value": "714 ± 58", "unit": "nM"}]}
{"smiles": "CC(C)(C)OC(=O)N[C@@H](Cc1ccc(-c2ccccc2)cc1)C(=O)NCC#N", "note": "[Gü1124]", "values": [{"measurement": "Severity score Day 1", "setting": "[1]", "value": 0}, {"measurement": "Severity score Day 2", "setting": "[1]", "value": 0}, {"measurement": "Severity score Day 3", "setting": "[1]", "value": 0}, {"measurement": "Severity score Day 4", "setting": "[1]", "value": 0}, {"measurement": "Ki", "setting": "[4]; [6]", "value": "270 ± 50", "unit": "nM"}]}
{"smiles": "CCCC[C@H](NC(=O)OC(C)(C)C)C(=O)NCC#N", "note": "[Gü967]", "values": [{"measurement": "Severity score Day 1", "setting": "[1]", "value": 0}, {"measurement": "Severity score Day 2", "setting": "[1]", "value": 0}, {"measurement": "Severity score Day 3", "setting": "[1]", "value": 0}, {"measurement": "Severity score Day 4", "setting": "[1]", "value": 0}, {"measurement": "Ki", "setting": "[4]; [6]", "value": "870 ± 100", "unit": "nM"}]}
